{"source": "paper PMC6693348", "about": "(Journal of medicinal chemistry, 2019)", "key": {"[1]": {"target": "EGFR protein ECD (Homo sapiens, UniProt P00533)", "assay": "Surface plasmon resonance with immobilized EGFR", "assay_type": "binding", "settings": "analyte 0–300 μM"}, "[2]": {"settings": "reference standard; cited from earlier work"}, "[3]": {"system": "epidermal growth factor receptor (EGFR)", "settings": "cited from earlier work"}}, "note": "Like-named read-outs stand apart in the source and are kept apart here."}
{"molecule": "8-(3,5-Dimethoxyphenyl)-bis(3-p-isothio-cyanato phenyl)-BODIPY [BODIPY 10]", "values": [{"measurement": "specificity of binding to EGFR ECD (sensorgrams)", "setting": "[1]", "result": "nonspecific binding or weak binding"}]}
{"molecule": "CN(C)c1ccc2nc3ccc(=[N+](C)C)cc-3sc2c1", "note": "[methylene blue]", "values": [{"measurement": "ΦF (fluorescence quantum yield)", "setting": "[2]", "result": 0.035}]}
{"molecule": "LARLLT [D4]", "values": [{"measurement": "affinity for EGFR", "setting": "[3]; both in vitro and in vivo", "result": "high affinity"}]}
{"molecule": "YHWY-GYTPQNVI [GE11]", "values": [{"measurement": "affinity for EGFR", "setting": "[3]; both in vitro and in vivo", "result": "high affinity"}]}
{"molecule": "cyclo(K(N3)larllt)", "values": [{"measurement": "affinity for EGFR", "setting": "[3]", "result": "high affinity"}]}
